Experimental data: US20140179609A1, “Whey protein hydrolysate containing tryptophan peptide consisting of alpha lactalbumin and the use thereof” (Technische Universität Dresden, priority 2008, published 2014)
Where a SMILES comes first, the peptide text is derived from it.

Experiments:
ACE = biological target: T1, ACE (Oryctolagus cuniculus, UniProt P12822); experiment: ACE activity test (substrate HHL, hippuric acid quantified by RP HPLC); assay type: biochemical, rabbit; conditions: for IC50: dipeptides from Bachem, test as in Example 2, read-out: IC50 [μM] ACE-inhibiting activity; for ACE inhibiting action (in words): samples heat-treated at 100° C. for 10 minutes
T1 construct: The employed ACE is the rabbit lung enzyme obtained from Sigma-Aldrich; purchased Sigma-Aldrich; host or cells: rabbit lung (tissue-derived enzyme)
T1 sequence (P12822 34-1310): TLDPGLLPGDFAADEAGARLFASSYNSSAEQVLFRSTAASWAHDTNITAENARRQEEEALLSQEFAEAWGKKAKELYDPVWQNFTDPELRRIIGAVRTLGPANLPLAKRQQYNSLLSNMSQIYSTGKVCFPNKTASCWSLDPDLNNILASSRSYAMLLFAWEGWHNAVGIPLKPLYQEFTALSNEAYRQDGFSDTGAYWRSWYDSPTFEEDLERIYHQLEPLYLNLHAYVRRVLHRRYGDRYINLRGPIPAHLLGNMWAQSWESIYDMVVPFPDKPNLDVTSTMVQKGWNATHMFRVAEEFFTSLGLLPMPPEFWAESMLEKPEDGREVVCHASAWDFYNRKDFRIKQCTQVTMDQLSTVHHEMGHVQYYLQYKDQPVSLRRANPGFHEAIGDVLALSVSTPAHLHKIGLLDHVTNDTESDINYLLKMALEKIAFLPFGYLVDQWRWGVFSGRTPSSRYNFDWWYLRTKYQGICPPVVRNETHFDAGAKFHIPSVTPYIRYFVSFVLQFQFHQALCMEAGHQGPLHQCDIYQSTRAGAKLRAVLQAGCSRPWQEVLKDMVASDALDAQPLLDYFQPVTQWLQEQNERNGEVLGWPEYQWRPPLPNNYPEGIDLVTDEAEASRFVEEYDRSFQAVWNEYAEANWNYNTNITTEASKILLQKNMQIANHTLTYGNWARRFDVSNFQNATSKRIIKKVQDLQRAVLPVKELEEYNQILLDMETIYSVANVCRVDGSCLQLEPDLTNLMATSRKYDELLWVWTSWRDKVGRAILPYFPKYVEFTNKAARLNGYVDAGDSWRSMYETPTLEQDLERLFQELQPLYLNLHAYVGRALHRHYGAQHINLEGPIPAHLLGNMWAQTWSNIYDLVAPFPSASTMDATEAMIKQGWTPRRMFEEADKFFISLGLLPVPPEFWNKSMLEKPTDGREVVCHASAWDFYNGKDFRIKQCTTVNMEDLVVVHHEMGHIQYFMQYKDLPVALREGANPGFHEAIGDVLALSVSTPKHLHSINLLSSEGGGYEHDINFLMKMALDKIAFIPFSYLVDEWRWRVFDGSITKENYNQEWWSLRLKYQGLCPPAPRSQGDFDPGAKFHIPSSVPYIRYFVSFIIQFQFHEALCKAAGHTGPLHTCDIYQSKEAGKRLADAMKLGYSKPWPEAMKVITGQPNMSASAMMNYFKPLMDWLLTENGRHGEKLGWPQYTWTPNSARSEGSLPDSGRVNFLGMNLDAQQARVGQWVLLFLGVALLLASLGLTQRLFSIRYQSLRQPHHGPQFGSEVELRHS
Procedure: The determination of the ACE activity of the protein hydrolysates was carried out similar to a test disclosed by Cushman and Cheung in […] (Cushman, D. W. and Cheung, H.-S. Spectrophotometric Assay and Properties of Angiotensin-Converting Enzyme of Rabbit Lung, Biochemical Pharmacology, 1971, 20, 1637-1648). However, several modifications were carried out. The employed ACE is the rabbit lung enzyme obtained from Sigma-Aldrich. As a substrate N-benzoyl-glycyl-L-histidyl-L-leucin (HHL) was used which is considered to be analog to the natural substrate angiotensin I. ACE catalyzes the hydrolysis to L-histidyl-L-leucin (HL) and N-benzoyl-glycin (hippuric acid):
Since hippuric acid is UV-active (λmax=228 nm), it is possible, based on its contents determined by RP HPLC, to define the conversion rate and thus the enzyme activity. By means of a concentration series of the respective inhibitor solution, the inhibitor concentration can be determined that is required for lowering the ACE activity by one half (IC50).
In each series of measurements two enzyme blind values were carried along in which, in place of the sample solution, the same volume of double distilled water had been added. The blind value corresponds to 100% ACE activity. Calculation of the IC50 values was done by the software program SigmaPlot 5.0.
In addition to the samples that had been incubated for different lengths of time, also a blind value sample was analyzed that contained all employed enzymes and the whey protein powder in the same concentration as the hydrolysis samples. However, after addition of all substances, the enzymatic action was inactivated immediately by 10-minute incubation at 100° C. Also, possible effects by individual compounds on ACE were tested. For this purpose, the enzymes were inactivated and individually tested with respect to possible ACE inhibiting action. The same procedure was carried out with the whey protein powder. Whey protein powder that was not heat-treated was also tested with respect to its inhibiting action. For the determination of the IC50 value of the hydrolysis samples several concentrations were used in the ACE activity test. A protein concentration of 1000 mg protein/I was used as the basis. This parent solution was diluted 1:2, 1:5, 1:10, 1:20, 1:50, 1:100 and all solutions were tested with respect to their ACE inhibiting effect. Evaluation was also done with SigmaPlot 5.0.
In Table 12 the parameters measured by RP HPLC and LC-ESI-TOF-MS for the dipeptides according to the invention are listed. The Table contains also the IC50 values that were obtained for the dipeptides. […]

proteases = experiment: Stability of the dipeptides during enzymatic hydrolysis of whey protein (detection by GPC / LC-ESI-TOF-MS); conditions: hydrolysis with trypsin, Alcalase, Flavourzyme; found by GPC in all hydrolysates after three hours
Procedure: The whey protein Milei60 was hydrolyzed enzymatically by proteolytically acting enzymes, i.e., trypsin obtained from porcine pancreas (EC 3.4.21.4) as well as two further proteases, i.e., Alcalase® (Bacillus licheniformis) and Flavourzyme (Aspergillus oryzae). The following Table illustrates how hydrolysis is carried out.
The release of dipeptides Trp-Leu and Ile-Trp according to the invention during the course of hydrolysis was analyzed by GPC and LC-ESI-TOF-MS (liquid chromatography/electrospray ionization time of flight mass spectrometry).
In GPC the identification of the dipeptides was carried out by comparison with peaks of the standard peptides that were carried along.
The strongly ACE-inhibiting peptide Ile-Trp was detected unequivocally in the hydrolysates after a hydrolysis duration of three hours. Therefore, it appears to be accessible for the proteases only after a certain time has lapsed; this is true also for Trp-Leu.

[1] = test system: spontaneously hypertensive rats; experiment: Feeding tests on spontaneously hypertensive rats; assay type: in vivo, rat
From the text: Administered was a preparation that contained the peptides according to the invention (PP), feed with intact whey protein (MP) as well as, as a control, a rat feed with captopril, a known ACE inhibiting agent as well as a placebo.
The basic importance of whey protein hydrolysates containing the tryptophan-containing peptides of the present invention for affecting the arterial blood pressure was objectified in animal tests on spontaneously hypertensive rats (FIG. 4). Here, the whey protein hydrolysate in comparison to a control diet caused a significant lowering of systolic blood pressure by 21±6 mm Hg after 7 weeks. Feeding captopril (ACE inhibitor of the first generation) lowered over the same time period the blood pressure by 28±7 mm Hg.
This implies comprehensive heart-protective and vessel-protective effects caused by the whey protein hydrolysate.

Molecule	IC50 (ACE)	stability with respect to further digestion to the amino acids (proteases)	ACE inhibiting action (in words) (ACE)	other results
CC(C)C[C@H](NC(=O)[C@@H](N)Cc1c[nH]c2ccccc12)C(=O)O [Trp-Leu] (H-Trp-Leu-OH; N-terminus and C-terminus assumed)	10 µM	stable with respect to further digestion to the amino acids	–	–
CC[C@H](C)[C@H](N)C(=O)N[C@@H](Cc1c[nH]c2ccccc12)C(=O)O [Ile-Trp]	0.7 µM	stable with respect to further digestion to the amino acids	–	–
C[C@H](CS)C(=O)N1CCC[C@H]1C(=O)O [captopril]	–	–	–	lowering of systolic blood pressure ([1]; after 7 weeks, in comparison to a control diet): 28±7 mm Hg; reduced heart mass ([1]; in comparison to controls): 16%
Alcalase: protease from Bacillus licheniformis, heat-inactivated hydrolysis enzyme (protein, UniProt P00780 106-379, looked up) Subtilisin Carlsberg: AQTVPYGIPLIKADKVQAQGFKGANVKVAVLDTGIQASHPDLNVVGGASFVAGEAYNTDGNGHGTHVAGTVAALDNTTGVLGVAPSVSLYAVKVLNSSGSGSYSGIVSGIEWATTNGMDVINMSLGGASGSTAMKQAVDNAYAKGVVVVAAAGNSGSSGNTNTIGYPAKYDSVIAVGAVDSNSNRASFSSVGAELEVMAPGAGVYSTYPTNTYATLNGTSMASPHVAGAAALILSKHPNLSASQVRNRLSSTATYLGSSFYYGKGLINVEAAAQ	–	–	neither the inactivated enzymes, individually or as a mixture, nor the protein had an effect on ACE	–
trypsin: trypsin obtained from porcine pancreas (EC 3.4.21.4), heat-inactivated hydrolysis enzyme (protein, UniProt P00761 9-231, looked up) Trypsin: IVGGYTCAANSIPYQVSLNSGSHFCGGSLINSQWVVSAAHCYKSRIQVRLGEHNIDVLEGNEQFINAAKIITHPNFNGNTLDNDIMLIKLSSPATLNSRVATVSLPRSCAAAGTECLISGWGNTKSSGSSYPSLLQCLKAPVLSDSSCKSSYPGQITGNMICVGFLEGGKDSCQGDSGGPVVCNGQLQGIVSWGYGCAQKNKPGVYTKVCNYVNWIQQTIAAN	–	–	neither the inactivated enzymes, individually or as a mixture, nor the protein had an effect on ACE	–
